Patent EP2472259B1, “Specific molecules clinging to a lure” (Forschungszentrum Jülich GmbH, priority 2006, dated 2014)

How the values were obtained:
Experiment in all cases: anti-phage ELISA, relative SH3 binding activity of phage clones
Lck-SH3 = test system: Lck-SH3; set-up: species or system menschlichen; details: phage-displayed peptide, Fig. 2f; binding to Lck-SH3 compared with other SH3 domains
Source text: (§1) "anti-Phage-ELISA" - Bestimmung der relativen SH3-Bindungsaktivität einzelner Phagenklone
(§2) Dieser Bindungstest ist ein häufig verwendeter Test zur schnellen Bestimmung relativer Bindungsstärken selektierter Peptide, die hierbei noch physikalisch mit dem Phagen verknüpft vorliegen. Dieser Schritt dient auch zur Eliminierung von (bei dieser Methode nicht selten auftretenden) Phagenvarianten, die z. B. aufgrund ihrer Affinität zur Plastikoberfläche der verwendeten Mikrotiterplatten, angereichert werden und die somit zur Verfälschung der Ergebnisse führen können. Eine grundsätzliche Beschreibung der Methode findet sich z. B. unter Sparks et al. Methods Enzymol. 1995; 255:498-509.
(§3) GST-SH3 Protein wurde in einer Konzentration von 1-10 µg/ml in Tris-Bis über Nacht bei 4°C in Mikrotiterplatten immobilisiert. Verbleibende Bindungsstellen wurden durch 2-stündige Inkubation mit Blockierungspuffer (Bis-Tris mit 2 % Magermilchpulver) abgesättigt. In einer anderen Mikrotiterplatte wurden zuerst je 100 µl Suspension der zu testenden Phagenvariante mit 100 µl Blockierungspuffer für 20 Minuten vorinkubiert und erst dann für 1 Stunde zum immobilisierten GST-SH3 Protein gegeben. Nach einem Waschschritt mit Bis-Tris wurde ein Meerrettich-Peroxidase-konjugierter Antikörper zugegeben und die Platten für eine weitere Stunde inkubiert. […]

Hck-SH3 = details: phage-displayed peptide, Fig. 2f; binding to Hck-SH3 compared with Lck-SH3
Source text: as §1, §2, §3

Lyn-SH3 = details: phage-displayed peptide, Fig. 2f; binding to Lyn-SH3 compared with Lck-SH3
Source text: as §1, §2, §3

HSKYPLPPLPSL [PD1, control peptide from standard selection with Lck-SH3 as bait]
relative SH3-Bindungsaktivität (Lck-SH3): nicht die stärkste Bindung | relative SH3-Bindungsaktivität (Hck-SH3): ähnlich gut | relative SH3-Bindungsaktivität (Lyn-SH3): ähnlich gut
